Assays:
[1] = test system: cultured human mast cells (CHMC); assay: CHMC low cell density ionomycin activation: tryptase assay; type: cell-based; details: read-out: LD Tryptase, CHMC, Iono, 3 pt
[2] = test system: cultured human mast cells (CHMC); assay: CHMC low cell density IgE activation: tryptase assay; type: cell-based; details: IgE activation
Method in brief: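 Tryptase release, fluorogenic substrate, 30 min RT. Prior anti-IgE stimulation of CHMC, 30 min, 37 °C, after 1 hr preincubation at 1000–1500 cells/well in MT; unstimulated wells received MT.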

[3] = Homo sapiens, Mast cell, low cell density, 3 pt
[4] = Homo sapiens, Mast cell, low cell density, 3 pt, read-out: LD Tryptase, CHMC, IgE, 3 pt
[5] = Homo sapiens, Mast cell, low cell density, 8 pt, read-out: LD Tryptase, CHMC, IgE, 8 pt
[6] = low cell density, 3 pt, read-out: LD Tryptase, CHMC, IgE, 3 pt
[7] = low cell density, 8 pt, read-out: LD Tryptase, CHMC, IgE, 8 pt
[8] = Homo sapiens, Mast cell, low cell density CHMC, tryptase release, 3 point
[9] = Homo sapiens, Mast cell, low cell density CHMC, tryptase release, 3 point, read-out: LD Tryptase, CHMC, IgE, 3 pt

SMILES | IC50 [1, 3] [µM] | IC50 [2, 4] [µM] | further results
Nc1cccc(Nc2nc(Cl)ncc2F)n1 [Compound 486, N4-(2-Aminopyrid-6-yl)-2-chloro-5-fluoro-4-pyrimidineamine] | > 10 | > 10 | –
CN(c1ccc2c(c1)OCCO2)c1nc(N)ncc1F [Compound 487, N4-(3,4-Ethylenedioxyphenyl)-5-fluoro-N4-methyl-2,4-pyrimidinediamine] | > 10 | > 10 | –
CCOC(=O)c1cc2cccc(Nc3ncc(F)c(NCCO)n3)c2[nH]1 [Compound 489] | > 10 | > 10 | –
COc1ccc(N(C)c2nc(Cl)ncc2F)c(OC)n1 [Compound 490] | > 10 | > 10 | –
CNS(=O)(=O)c1ccc(Nc2ncc(F)c(Nc3ccc4c(c3)OCCO4)n2)cc1OC [Compound 493, N4-(3,4-Ethylenedioxyphenyl)-5-fluoro-N2-[4-(N-methylamino)sulfonyl-3-methoxyphenyl]-2,4-pyrimidinediamine] | > 10 | < 10 | IC50 [2, 5]: < 10 µM
CNS(=O)(=O)c1ccc(Nc2ncc(F)c(Nc3ccc(OC)c(OC)c3)n2)cc1OC [Compound 494, N4-(3,4-Dimethoxyphenyl)-5-fluoro-N2-[3-methoxyphenyl-4-(N-methylamino)sulfonyl]-2,4-pyrimidinediamine] | – | – | IC50 ([1]; low cell density, 3 pt): > 10 µM; IC50 [2, 6]: < 10 µM; IC50 [2, 7]: < 10 µM
CNS(=O)(=O)c1ccc(Nc2ncc(F)c(Nc3cc(OC)cc(OC)c3)n2)cc1OC [Compound 495, N4-(3,5-Dimethoxyphenyl)-5-fluoro-N2-[3-methoxyphenyl-4-(methylamino)sulfonyl]-2,4-pyrimidinediamine] | – | – | IC50 ([1]; low cell density, 3 pt): > 10 µM; IC50 [2, 6]: < 10 µM
CNS(=O)(=O)c1ccc(Nc2ncc(F)c(Nc3ccc4c(c3)NC(=O)C(C)(C)O4)n2)cc1OC [Compound 496, N4-(2,2-Dimethyl-3-oxo-4H-benz[1,4]oxazin-6-yl)-5-fluoro-N2-[3-methoxyphenyl-4-(methylamino)sulfonyl]-2,4-pyrimidinediamine] | – | – | IC50 ([1]; low cell density, 3 pt): < 10 µM; IC50 [2, 6]: < 10 µM; IC50 [2, 7]: < 10 µM
CNS(=O)(=O)c1ccc(Nc2ncc(F)c(Nc3ccc(Cl)c(C(F)(F)F)c3)n2)cc1OC [Compound 497, N4-(4-Chloro-3-trifluoromethylphenyl)-5-fluoro-N2-[3-methoxyphenyl-4-(methylamino)sulfonyl]-2,4-pyrimidinediamine] | – | – | IC50 ([1]; low cell density, 3 pt): > 10 µM; IC50 [2, 6]: < 10 µM; IC50 [2, 7]: < 10 µM
CNS(=O)(=O)c1ccc(Nc2ncc(F)c(Nc3ccc(OC(F)(F)F)c(Cl)c3)n2)cc1OC [Compound 498, N4-(3-Chloro-4-trifluoromethoxyphenyl)-5-fluoro-N2-[4-(3-methoxyphenyl-N-methylamino)sulfonyl]-2,4-pyrimidinediamine] | – | – | IC50 ([1]; low cell density, 3 pt): > 10 µM; IC50 [2, 6]: < 10 µM; IC50 [2, 7]: < 10 µM
CNS(=O)(=O)c1ccc(Nc2ncc(F)c(Nc3cccc(O)c3)n2)cc1OC [Compound 499, 5-Fluoro-N4-(3-hydroxyphenyl)-N2-[3-methoxyphenyl-4-(N-methylamino)sulfonyl]-2,4-pyrimidinediamine] | – | – | IC50 ([1]; low cell density, 3 pt): > 10 µM; IC50 [2, 6]: < 10 µM; IC50 [2, 7]: < 10 µM
CNS(=O)(=O)c1ccc(Nc2nc(Cl)ncc2F)cc1OC [Compound 502, 2-Chloro-5-fluoro-N4-[4-(N-methylamino)sulfonyl-3-methoxyphenyl]-2,4-pyrimidineamine] | – | – | IC50 ([1]; low cell density, 3 pt): > 10 µM; IC50 [2, 6]: > 10 µM
COc1cc(Nc2ncc(F)c(Nc3ccc(OCCO)nc3)n2)cc(OC)c1 [Compound 503, N2-(3,5-Dimethoxyphenyl)-5-fluoro-N4-[2-(2-hydroxyethyleneoxy)pyrid-5-yl]-2,4-pyrimidinediamine] | – | – | IC50 ([1]; low cell density, 3 pt): > 10 µM; IC50 [2, 6]: < 10 µM; IC50 [2, 7]: < 10 µM
Cc1cc(C)cc(Nc2ncc(F)c(Nc3ccc(OCCO)nc3)n2)c1 [Compound 504, N2-(3,5-Dimethylphenyl)-5-fluoro-N4-[2-(2-hydroxyethyleneoxy)pyrid-5-yl]-2,4-pyrimidinediamine] | – | – | IC50 ([1]; low cell density, 3 pt): > 10 µM; IC50 [2, 6]: < 10 µM; IC50 [2, 7]: < 10 µM
COc1ccc(Nc2ncc(F)c(Nc3ccc(OCCO)nc3)n2)cc1Cl [Compound 505, N2-(3-Chloro-4-methoxyphenyl)-5-fluoro-N4-[2-(2-hydroxyethyleneoxy)pyrid-5-yl]-2,4-pyrimidinediamine] | – | – | IC50 ([1]; low cell density, 3 pt): > 10 µM; IC50 [2, 6]: < 10 µM; IC50 [2, 7]: < 10 µM
C=CCNc1ncc(F)c(N(C)c2ccc3c(c2)OCCO3)n1 [Compound 506, N2-Allyl-N4-(3,4-ethylenedioxyphenyl)-5-fluoro-N4-methyl-2,4-pyrimidinediamine] | > 10 | > 10 | –
Cc1ccc(Nc2nc(Nc3cc(C)cc(C)c3)ncc2F)nc1 [Compound 509] | > 10 | < 10 | IC50 [2, 5]: < 10 µM
Fc1cnc(Nc2cccc(-c3ncon3)c2)nc1Nc1ccc2c(c1)OCCO2 [Compound 512] | > 10 | < 10 | –
COc1ccc(Nc2nc(Nc3cccc(-c4ncon4)c3)ncc2F)cc1OC [Compound 513] | > 10 | < 10 | –
CC1(C)Oc2ccc(Nc3nc(Nc4cccc(-c5ncon5)c4)ncc3F)cc2NC1=O [Compound 514, N4-(2,2-Dimethyl-3-oxo-4H-benz[1,4]oxazin-6-yl)-5-fluoro-N2-[3-(1,2,4-oxadiazol-3-yl)phenyl]-2,4-pyrimidinediamine] | > 10 | < 10 | –
COC(=O)c1cc(Nc2ncc(F)c(Nc3ccc4c(c3)OCCO4)n2)cc(-c2ncco2)c1 [Compound 516, N4-(3,4-Ethylenedioxyphenyl)-5-fluoro-N2-[5-methoxycarbonyl-3-(oxazol-2-yl)phenyl]-2,4-pyrimidinediamine] | > 10 | > 10 | –
COC(=O)c1cc(Nc2ncc(F)c(Nc3ccc4c(c3)NC(=O)C(C)(C)O4)n2)cc(-c2ncco2)c1 [Compound 517, N4-(2,2-Dimethyl-3-oxo-4H-benz[1,4]oxazin-6-yl)-5-fluoro-N2-[5-methoxycarbonyl-3-(oxazol-2-yl)phenyl]-2,4-pyrimidinediamine] | > 10 | > 10 | –
COC(=O)c1cc(Nc2ncc(F)c(Nc3cccc(O)c3)n2)cc(-c2ncco2)c1 [Compound 518, 5-Fluoro-N4-(3-hydroxyphenyl)-N2-[5-methoxycarbonyl-3-(oxazol-2-yl)phenyl]-2,4-pyrimidinediamine] | > 10 | < 10 | –
Fc1cnc(Nc2cc(-c3ncco3)cc(C(F)(F)F)c2)nc1Nc1ccc2c(c1)OCCO2 [Compound 519, N4-(3,4-Ethylenedioxyphenyl)-5-fluoro-N2-[3-(oxazol-2-yl)-5-trifluoromethylphenyl]-2,4-pyrimidinediamine] | > 10 | < 10 | –
COc1ccc(Nc2nc(Nc3cc(-c4ncco4)cc(C(F)(F)F)c3)ncc2F)cc1OC [Compound 520, N4-(3,4-Dimethoxyphenyl)-5-fluoro-N2-[3-(oxazol-2-yl)-5-trifluoromethylphenyl]-2,4-pyrimidinediamine] | > 10 | < 10 | –
CC1(C)Oc2ccc(Nc3nc(Nc4cc(-c5ncco5)cc(C(F)(F)F)c4)ncc3F)cc2NC1=O [Compound 521, N4-(2,2-Dimethyl-3-oxo-4H-benz[1,4]oxazin-6-yl)-5-fluoro-N2-[3-(oxazol-2-yl)-5-trifluoromethylphenyl]-2,4-pyrimidinediamine] | > 10 | < 10 | –
CC(C)Oc1ccc(N(C)c2nc(Cl)ncc2F)cn1 [Compound 576] | – | – | IC50 [1, 8]: > 10 µM; IC50 [2, 9]: > 10 µM
COc1cc(Nc2ncc(F)c(N(C)c3ccc(OC)c(Cl)c3)n2)cc(OC)c1 [Compound 577] | – | – | IC50 [1, 8]: > 10 µM; IC50 [2, 9]: < 10 µM

More lines, main results first:

IC50 [1, 3] [µM] | IC50 [2, 4] [µM] | SMILES | further results
> 10 | < 10 | CNC(=O)c1ccc(Nc2nc(Nc3cc(OC)cc(OC)c3)ncc2F)cc1Cl [Compound 481] | IC50 [2, 5]: < 10 µM
> 10 | < 10 | CNC(=O)c1ccc(Nc2nc(Nc3cc(C)cc(C)c3)ncc2F)cc1Cl [Compound 482] | IC50 [2, 5]: < 10 µM
> 10 | < 10 | COc1cc(OC)cc(N(C)c2nc(Cl)ncc2F)c1 [Compound 488] | –
> 10 | > 10 | CNc1ncc(F)c(N(C)c2ccc(OC)nc2OC)n1 [Compound 500] | –
> 10 | > 10 | CNc1ncc(F)c(N(C)c2cc(Cl)c(OC)c(Cl)c2)n1 [Compound 501] | –
> 10 | < 10 | CNS(=O)(=O)c1ccc(Nc2nc(Nc3cc(OC)cc(OC)c3)ncc2F)cc1OC [Compound 507] | IC50 [2, 5]: < 10 µM
> 10 | < 10 | COc1cc(Nc2ncc(F)c(Nc3ccc(C)cn3)n2)cc(OC)c1 [Compound 508, N2-(3,5-Dimethoxyphenyl)-5-fluoro-N4-(3-methylpyrid-6-yl)-2,4-pyrimidinediamine] | IC50 [2, 5]: < 10 µM
> 10 | < 10 | COc1cc(Nc2ncc(F)c(Nc3ccc(Cl)cn3)n2)cc(OC)c1 [Compound 510] | IC50 [2, 5]: < 10 µM
> 10 | < 10 | COC(=O)c1cc(Nc2ncc(F)c(Nc3ccc(OC)c(OC)c3)n2)cc(-c2ncco2)c1 [Compound 515, N4-(3,4-Dimethoxyphenyl)-5-fluoro-N2-[5-methoxycarbonyl-3-(oxazol-2-yl)phenyl]-2,4-pyrimidinediamine] | –

Reference: patent US20220073536A1 (Rigel Pharmaceuticals, Inc., priority 2003, published 2022)
